Measured values from patent publication US4755526A, “Method of inhibiting aromatase” (Eli Lilly and Company, priority 1984, dated 1988).
Where a name gives a salt, the structure may show the parent alone.

Assays:
[1] = target: T1, aromatase (Rattus norvegicus, UniProt P22443); assay: Aromatase inhibition in the rat ovarian microsome assay; assay type: biochemical; conditions: EC50: concentration required to achieve 50% inhibition of aromatase activity, substrate (androstenedione) concentration 0.1 μM
T1 construct: ovarian microsomes are obtained from rats treated with pregnant mares serum gonadotropin; from tissue; host or cells: ovarian microsomes of rats treated with pregnant mares serum gonadotropin
T1 sequence (P22443 1-508): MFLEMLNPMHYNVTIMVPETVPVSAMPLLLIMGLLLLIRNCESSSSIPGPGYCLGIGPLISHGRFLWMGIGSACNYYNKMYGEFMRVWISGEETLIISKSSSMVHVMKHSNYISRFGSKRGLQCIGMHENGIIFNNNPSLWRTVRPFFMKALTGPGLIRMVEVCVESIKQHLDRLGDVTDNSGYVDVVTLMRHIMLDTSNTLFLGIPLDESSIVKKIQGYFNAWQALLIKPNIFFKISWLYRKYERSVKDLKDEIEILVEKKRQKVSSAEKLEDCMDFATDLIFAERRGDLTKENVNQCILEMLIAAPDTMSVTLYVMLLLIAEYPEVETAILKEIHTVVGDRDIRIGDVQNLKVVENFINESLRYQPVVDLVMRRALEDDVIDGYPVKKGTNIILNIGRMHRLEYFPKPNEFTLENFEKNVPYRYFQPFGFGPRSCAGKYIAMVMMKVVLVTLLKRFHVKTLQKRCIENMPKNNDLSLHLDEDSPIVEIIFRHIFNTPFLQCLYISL
Experimental: In this test system, ovarian microsomes are obtained from rats treated with pregnant mares serum gonadotropin. Test compounds are added to reaction vials containing 0.1 μM 4-androstene-3,17-dione, 100,000 dpm 1,2[^3 H]-androstenedione, the microsomes and a NADPH generating system. The concentrations of the inhibitors tested ranged between 0.005 and 10 μM.

[2] = test system: estrogen synthesis; assay: Estrogen synthesis inhibition in rats (uterine weight and ovarian steroid concentrations); assay type: in vivo, female Wistar rats; conditions: for Mean Steroid Concentration, estradiol / Mean Steroid Concentration, estriol / Mean Steroid Concentration, estrone: ovaries; for Mean Uterine Weight: testosterone propionate-treated rats
Experimental: Test compounds were administered for seven days either daily by gavage in corn oil or as a component of the diet. Control animals received either corn oil or diet without the test compound. Beginning on the fourth day of the test, all animals treated with the test compound and one half of the control animals were given a subcutaneous injection of 1.0 mg of testosterone propionate in corn oil. The remaining control animals received only an equivalent volume of corn oil.
After two hours, the animals were killed by decapitation. Uteri were isolated, trimmed of extraneous connective tissue, and weighed. […] In the control animals treated with testosterone propionate, estrogens produced by aromatization stimulated the uterus resulting in an increase in weight.
The ovarian steroids were extracted with 1.5 ml of 9:1 (v/v) toluene/ethanol to which had been added 25 to 100 mcg each of unlabelled estradiol, estriol, and estrone, and approximately 1000 dpm of [^14 C]-estradiol. The samples were vortexed, centrifuged at 500×g for 10 minutes, and the organic phase was transferred to a conical vial. Two additional extractions were performed on the residue in the same way. The pooled organic extracts were evaporated for subsequent thin-layer chromatography.
Ovarian proteins were precipitated by the addition of 5.0 ml of ethanol to the remaining aqueous phase. After an overnight incubation at 4° C., the samples were centrifuged at 1500×g for 10 minutes. The supernatant was discarded, and the pellet was dissolved in 0.3N potassium hydroxide.
The organic residue from each above extraction was redissolved in 9:1 (v/v) dichloromethane/methanol. The solution of each sample was applied to separate silica gel thin layer chromatography plates which contained a fluorescent indicator. The plates were developed in the first dimension with 160:38:1.5:0.5 (v/v/v/v) dichloromethane/ethyl acetate/methanol/acetic acid to within 3 cm of the top of the plate. After air-drying, the plate was developed in the second dimension with 180:19:1 (v/v/v) dichloromethane/methanol/ammonium hydroxide. The plate was air-dried and viewed under 254 nm UV light.
The visible spots were marked and the plates were sprayed with primulin (0.001% in 4:1 v/v acetone/water) according to the method of Wright, J. Chromatography, 59, 220 (1971) which allowed for the identification of additional steroids under 365 nm UV light. The spots were scraped from the plate using a glass wool plugged Pasteur pipet attached to a vacuum line. The steroids were eluted directly into scintillation vials by the addition of 0.2 ml of dichloromethane followed by two washes each of 2.0 ml of methanol. The organic solvent was evaporated and 10.0 ml of scintillation fluid (Beckman Ready Solv-NA) was added to the vials. Samples were analyzed by liquid scintillation spectrometry. Corrections were made based on the recoveries of the [^14 C]-steroid. Steroid concentrations are expressed as femtomoles per milligram protein.

[3] = 30 ppm in feed (approximately 3 mg/kg/day)
[4] = 300 ppm in feed (approximately 30 mg/kg/day)
[5] = 200 ppm in feed (approximately 20 mg/kg/day)

For `C#CC(c1ccccc1)(c1ccccc1)n1ccnc1` [1-(1,1-diphenyl-2-propynyl)-1H--imidazole], the EC50 [1] was 18 nM, the “Mean Steroid Concentration, estradiol” value [2, 3] was 1.05 femtomoles per milligram of protein and the “Mean Steroid Concentration, estriol” value [2, 3] was 1.06 femtomoles per milligram of protein. The “Mean Steroid Concentration, estrone” value [2, 3] was 0.00 femtomoles per milligram of protein, the “Mean Uterine Weight” value [2, 3] was 212.3 mg and the “Mean Steroid Concentration, estradiol” value [2, 4] was 1.01 femtomoles per milligram of protein. The “Mean Steroid Concentration, estriol” value [2, 4] was 0.60 femtomoles per milligram of protein, the “Mean Steroid Concentration, estrone” value [2, 4] was 0.00 femtomoles per milligram of protein and the “Mean Uterine Weight” value [2, 4] was 137.6 mg.

In the case of `Cl.Clc1cccc(Cn2ccnc2)c1Cl` [1-(2,3-dichlorobenzyl)imidazole hydrochloride], the EC50 [1] is reported as 87 nM, the “Mean Steroid Concentration, estradiol” value [2, 3] is reported as 2.09 femtomoles per milligram of protein and the “Mean Steroid Concentration, estriol” value [2, 3] is reported as 0.78 femtomoles per milligram of protein. For the same compound, the “Mean Steroid Concentration, estrone” value [2, 3] was 0.34 femtomoles per milligram of protein, the “Mean Uterine Weight” value [2, 3] was 139.4 mg and the “Mean Steroid Concentration, estradiol” value [2, 4] was 1.12 femtomoles per milligram of protein. The “Mean Steroid Concentration, estriol” value [2, 4] was 0.41 femtomoles per milligram of protein, the “Mean Steroid Concentration, estrone” value [2, 4] was 0.23 femtomoles per milligram of protein and the “Mean Uterine Weight” value [2, 4] was 127.3 mg.

In the case of `Clc1ccc(COc2ccccc2Cn2ccnc2)c(Cl)c1` [1-[(2-[2,4-dichlorobenzyloxy]phenyl)methyl]-1H--imidazole nitrate], the EC50 [1] is reported as 68 nM, the “Mean Steroid Concentration, estradiol” value [2, 3] is reported as 1.16 femtomoles per milligram of protein and the “Mean Steroid Concentration, estriol” value [2, 3] is reported as 0.33 femtomoles per milligram of protein. The “Mean Steroid Concentration, estrone” value [2, 3] was 0.31 femtomoles per milligram of protein, the “Mean Uterine Weight” value [2, 3] was 173.5 mg and the “Mean Steroid Concentration, estradiol” value [2, 4] was 1.97 femtomoles per milligram of protein. The “Mean Steroid Concentration, estriol” value [2, 4] was 0.34 femtomoles per milligram of protein, the “Mean Steroid Concentration, estrone” value [2, 4] was 0.30 femtomoles per milligram of protein and the “Mean Uterine Weight” value [2, 4] was 151.4 mg.

In the case of `O=[N+]([O-])c1ccc(Cn2ccnc2)cc1` [1-[(4-nitrophenyl)methyl]-1H--imidazole hydrochloride], the EC50 [1] is reported as 29 nM, the “Mean Steroid Concentration, estradiol” value [2, 3] is reported as 1.16 femtomoles per milligram of protein and the “Mean Steroid Concentration, estriol” value [2, 3] is reported as 0.80 femtomoles per milligram of protein. For the same compound, the “Mean Steroid Concentration, estrone” value [2, 3] was 0.88 femtomoles per milligram of protein, the “Mean Uterine Weight” value [2, 3] was 185.3 mg and the “Mean Steroid Concentration, estradiol” value [2, 4] was 0.79 femtomoles per milligram of protein. The “Mean Steroid Concentration, estriol” value [2, 4] was 1.11 femtomoles per milligram of protein, the “Mean Steroid Concentration, estrone” value [2, 4] was 1.19 femtomoles per milligram of protein and the “Mean Uterine Weight” value [2, 4] was 147.2 mg.

In the case of `CCOc1ccccc1C(C1CCCCC1)n1ccnc1` (stereo not shown) [1-[cyclohexyl(2-ethoxyphenyl)methyl]-1H--imidazole hydrochloride], the EC50 [1] is reported as 22 nM, the “Mean Steroid Concentration, estradiol” value [2, 3] is reported as 1.30 femtomoles per milligram of protein and the “Mean Steroid Concentration, estriol” value [2, 3] is reported as 0.36 femtomoles per milligram of protein. For the same compound, the “Mean Steroid Concentration, estrone” value [2, 3] was 0.24 femtomoles per milligram of protein, the “Mean Uterine Weight” value [2, 3] was 149.0 mg and the “Mean Steroid Concentration, estradiol” value [2, 4] was 1.11 femtomoles per milligram of protein. The “Mean Steroid Concentration, estriol” value [2, 4] was 0.28 femtomoles per milligram of protein, the “Mean Steroid Concentration, estrone” value [2, 4] was 0.20 femtomoles per milligram of protein and the “Mean Uterine Weight” value [2, 4] was 96.6 mg.

In the case of `Clc1ccc(C(c2ccc(Cl)cc2)(c2ccc(Cl)cc2)n2cncn2)cc1` [1-[tris(4-chlorophenyl)methyl]-1H--1,2,4-triazole], the EC50 [1] is reported as 420 nM.

Work on `COc1ccc(C(c2ccccc2)(c2ccc(OC)cc2)n2ccnc2)cc1` [1-[α,α-bis(4-methoxyphenyl)benzyl]imidazole] yielded an EC50 [1] of 64 nM.

`c1ccc(Cn2ccnc2)cc1` [1-benzylimidazole] showed an EC50 [1] of 2800 nM.

`Fc1ccc(C(c2ccccc2)(c2ccc(F)cc2)n2ccnc2)cc1` [1-bis(4-fluorophenyl)phenylmethyl]-1H--imidazole] showed an EC50 [1] of 40 nM.

For `c1ccc(C(c2ccccc2)n2cncn2)cc1` [1-diphenylmethyl-1H--1,2,4-triazole], the EC50 [1] was > 5000 nM.

`Clc1ccc(C(c2ccc(Cl)cc2)(c2ccc(Cl)cc2)n2ccnc2)cc1` [1-tris(4-chlorophenyl)methyl-1H--imidazole] showed an EC50 [1] of 270 nM.

Work on `Cc1nccn1C(c1ccc(Cl)cc1)(c1ccc(Cl)cc1)c1ccc(Cl)cc1` [1-tris(4-chlorophenyl)methyl-2-methyl-1H--imidazole] yielded an EC50 [1] of 270 nM.

`c1ccc(C(c2ccccc2)(c2ccccc2)n2cncn2)cc1` [1-trityl-1H--1,2,4-triazole] was tested, and the EC50 [1] was 310 nM.

With `c1ccc(C(c2ccccc2)(c2ccccc2)n2ccnc2)cc1` [1-tritylimidazole] the EC50 [1] was 32 nM, the “Mean Steroid Concentration, estradiol” value [2, 3] was 0.75 femtomoles per milligram of protein and the “Mean Steroid Concentration, estriol” value [2, 3] was 0.44 femtomoles per milligram of protein. The “Mean Steroid Concentration, estrone” value [2, 3] was 0.23 femtomoles per milligram of protein, the “Mean Uterine Weight” value [2, 3] was 135.0 mg and the “Mean Steroid Concentration, estradiol” value [2, 4] was 0.64 femtomoles per milligram of protein. The “Mean Steroid Concentration, estriol” value [2, 4] was 0.28 femtomoles per milligram of protein, the “Mean Steroid Concentration, estrone” value [2, 4] was 0.21 femtomoles per milligram of protein and the “Mean Uterine Weight” value [2, 4] was 122.6 mg.

For `c1ccc(C(c2ccccc2)(c2ccccn2)n2ccnc2)cc1` [2-(1H--imidazol-1-yldiphenylmethyl)pyridine], the EC50 [1] was < 50 nM.

For `Cc1nccn1C(c1ccccc1)(c1ccccc1)c1ccccc1` [2-methyl-1-tritylimidazole], the EC50 [1] was 1300 nM.

In the case of `CSc1ccc(C(c2ccccc2)(c2cccnc2)n2ccnc2)cc1` (stereo not shown) [3-(1H--imidazol-1-yl-[4-(methylthio)phenyl]phenylmethyl)pyridine], the EC50 [1] is reported as < 50 nM.

`CSc1ccc(C(c2ccccc2)(c2cccnc2)n2cncn2)cc1` (stereo not shown) [3-([4-(methylthio)phenyl]phenyl-1H--1,2,4-triazol-1-ylmethyl)pyridine] was tested, and the EC50 [1] was 195 nM.

`Clc1ccc(Cl)c(C(c2cccnc2)(c2cc(Cl)ccc2Cl)n2ccnc2)c1` [3-(bis[2,5-dichlorophenyl]-1H--imidazol-1-ylmethyl)pyridine] was tested, and the EC50 [1] was 210 nM.

Compound `CC(C)(C)C(c1ccc(Cl)cc1)(c1cccnc1)n1ccnc1` (stereo not drawn) [3-(α-tert-butyl-4-chloro-α-imidazol-1-ylbenzyl)pyridine] has an EC50 [1] of 100 nM.

With `Clc1ccc(C(c2cccnc2)(c2ccccc2Cl)n2ccnc2)cc1` (stereo not shown) [3-[(2-chlorophenyl)(4-chlorophenyl)-1H--imidazol-1-ylmethyl]pyridine] the EC50 [1] was 86 nM.

In the case of `FC(F)(F)c1cccc(C(c2ccc(Cl)cc2)(c2cccnc2)n2cncn2)c1` (stereo not shown) [3-[(4-chlorophenyl)-1H--1,2,4-triazol-1-yl-(3-trifluoromethylphenyl)methyl]pyridine], the EC50 [1] is reported as 98 nM, the “Mean Steroid Concentration, estradiol” value [2, 5] is reported as 0.88 femtomoles per milligram of protein and the “Mean Steroid Concentration, estriol” value [2, 5] is reported as 0.06 femtomoles per milligram of protein. The “Mean Steroid Concentration, estrone” value [2, 5] was 0.01 femtomoles per milligram of protein and the “Mean Uterine Weight” value [2, 5] was 159.2 mg.

For `FC(F)(F)c1cccc(C(c2ccc(Cl)cc2)(c2cccnc2)n2ccnc2)c1` (stereo not shown) [3-[(4-chlorophenyl)-1H--imidazol-1-yl-(3-trifluoromethylphenyl)methyl]pyridine], the EC50 [1] was < 50 nM, the “Mean Steroid Concentration, estradiol” value [2, 5] was 0.70 femtomoles per milligram of protein and the “Mean Steroid Concentration, estriol” value [2, 5] was 0.27 femtomoles per milligram of protein. For the same compound, the “Mean Steroid Concentration, estrone” value [2, 5] was 0.06 femtomoles per milligram of protein and the “Mean Uterine Weight” value [2, 5] was 122.6 mg.

Compound `Clc1ccccc1C(c1cccnc1)(c1ccccc1Cl)n1cncn1` [3-[bis(2-chlorophenyl)-1H--1,2,4-triazol-1-ylmethyl]pyridine] has an EC50 [1] of 720 nM.

In the case of `Clc1ccccc1C(c1cccnc1)(c1ccccc1Cl)n1ccnc1` [3-[bis(2-chlorophenyl)-1H--imidazol-1-ylmethyl]pyridine], the EC50 [1] is reported as 305 nM.

For `Cc1nccn1C(c1ccc(Cl)cc1)(c1ccc(Cl)cc1)c1cccnc1` [3-[bis(4-chlorophenyl)(2-methyl-1H--imidazol-1-yl)methyl]pyridine], the EC50 [1] was < 50 nM, the “Mean Steroid Concentration, estradiol” value [2, 5] was 0.89 femtomoles per milligram of protein and the “Mean Steroid Concentration, estriol” value [2, 5] was 0.38 femtomoles per milligram of protein. The “Mean Steroid Concentration, estrone” value [2, 5] was 0.06 femtomoles per milligram of protein and the “Mean Uterine Weight” value [2, 5] was 125.8 mg.

Work on `c1ccc(C(c2ccccc2)(c2ccncc2)n2cncn2)cc1` [4-(diphenyl-1H--1,2,4-triazole-1-ylmethyl)pyridine] yielded an EC50 [1] of 160 nM.

With `Cc1nccn1C(c1ccccc1)(c1ccccc1)c1ccncc1` [4-[(2-methyl-1-imidazol-1-yl)diphenylmethyl]pyridine] the EC50 [1] was 120 nM.

In the case of `Fc1ccc(C(c2ccc(Cl)cc2)n2cnnc2)cc1` (stereo not shown) [4-[(4-chlorophenyl)(4-fluorophenyl)methyl]-4H--1,2,4-triazole], the EC50 [1] is reported as 80 nM.

For `c1ccc(C(c2ccccc2)(c2cncnc2)n2cncn2)cc1` [5-(diphenyl-1H--1,2,4-triazol-1-ylmethyl)pyrimidine], the EC50 [1] was 825 nM.

With `FC(F)(F)c1ccc(C(c2ccc(Cl)cc2)(c2cncnc2)n2ccnc2)cc1` (stereo not shown) [5-[(4-chlorophenyl)-1H--imidazol-1-yl(4-trifluoromethylphenyl)methyl]pyrimidine] the EC50 [1] was 30 nM.
